According to patent publication US20210315893A1 (Galapagos NV, priority 2017, published 2021):
pEC50: −log10 of the molar value.

What was measured:
[1] = target: T1, human GPCR sphingosine 1-phosphate receptor 2 (Homo sapiens, UniProt O95136); experiment: S1PR2 antagonist Ca2+ flux assay; assay type: cell-based; conditions: antagonist mode, CHO-S1PR2 cells, S1P at EC80, Ca2+ fluorescence; read-out: S1P2 EC50 (nM), S1P2 antagonist EC50
T1 construct: host or cells: CHO
Protocol: Triggering of S1PR2 by administration of Sphingosine-1-phosphate leads to a transient increase in intracellular Ca^2+. The Ca^2+ flux assays are measuring the release of Ca^2+ intracellularly by use of a Ca^2+ sensitive fluorescent dye. The assay is firstly run in agonist mode (incubation of compounds alone) to ensure that the Ca^2+ released measured is not caused by the test compound having an agonistic effect. Then the assay is continued in antagonist mode (Sphingosine-1-Phosphate added to incubated medium containing the test compounds).
CHO cells stably overexpressing human GPCR sphingosine 1-phosphate receptor 2 (CHO-S1PR2 Perkin Elmer; ES-594-A) are seeded from a frozen stock in 384 wells sterile microplates (50 μL; 7,500 cells/well) and are incubated overnight at 37° C. and 5% CO2. The next day cells are washed twice with starvation medium (F-12 Ham's medium containing 0.1% BSA (Fatty acid free: FAF)) and left in 25 μL starvation medium for 1 h at 37° C., 5% CO2. After this starvation cells are incubated with 25 μL buffer containing the Ca^2+-sensitive fluorescent dye (0.5 mg Fluo8+125 mg Allura Red in 100 mL of 1% DMSO, in HBSS+20 mM Hepes+5 mM probenecid). The cells are incubated for an additional 1 h after which 10 μL compounds, diluted in HBSS buffer with 20 mM Hepes and 0.1% BSA (FAF), are added to the cells and intracellular Ca2+ changes are immediately measured by reading fluorescence during 3 min (FDSS/pCELL reader). The ratio of the maximal fluorescence over the background fluorescence before compound injection is used to determine compound response.
After readout of the agonist activity, the plates are incubated for 15 min at 37° C. and 5% CO2. Then, cells are stimulated with 10 μL Sphingosine-1-Phosphate (S1P) (Avanti Polar lipids-860492P) at its EC80 concentration. Intracellular Ca2+ changes are immediately measured by reading fluorescence during 3 min (FDSS/pCELL reader). The ratio of the maximal fluorescence over the background fluorescence before compound injection is used to determine compound response.
The obtained ratio's for agonist and antagonist readout were normalized versus vehicle and EC 100 of S1P ascontrols for agonist mode and versus vehicle and […]. From these normalized data EC50 of the compounds are derived.

S1PR2 = target: T2, S1PR2 (Homo sapiens, UniProt O95136); experiment: S1PR2 binding assay (competition with radioactively labeled S1P, SpA); conditions: membranes from stable cell line over expressing S1PR2, SpA beads; read-out: S1P2 EC50 (nM), S1PR2 binding EC50
T2 construct: expressed in transfected cells
T2 sequence (O95136 whole entry): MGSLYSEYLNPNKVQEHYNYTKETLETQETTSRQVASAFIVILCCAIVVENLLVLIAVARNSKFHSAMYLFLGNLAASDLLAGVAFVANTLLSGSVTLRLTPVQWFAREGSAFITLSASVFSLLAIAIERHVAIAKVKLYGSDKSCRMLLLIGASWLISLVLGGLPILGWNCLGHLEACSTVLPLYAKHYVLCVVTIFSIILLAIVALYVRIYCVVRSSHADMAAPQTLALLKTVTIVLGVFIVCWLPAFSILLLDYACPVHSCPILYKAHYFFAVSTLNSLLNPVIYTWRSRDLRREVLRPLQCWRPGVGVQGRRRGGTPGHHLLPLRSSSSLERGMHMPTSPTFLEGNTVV
Protocol: The following assay can be used for determination of S1PR2 binding. The binding assay measures the potential to compete with radioactively labeled S1P for binding to the receptor.
The assay is performed in a96 well plate where the following reagents are added. First 50 μL compound is added into the assay plate, followed by addition of 100 μL ofa mixture consisting of membrane and Scintillation proximity Assay (SpA) beads [mixture consists […] membranes derived from stable cell line over expressing SPR2, 0.5 mg/well Polyvinyltoluene-Wheat Germ-Agglutinin (PVT-WGA) beads (Perkin Elmer, RPNQOO1)]. All components are diluted in assay buffer containing 20 mM Tris pH 7.5; 10 mM MgCl2; 100 mM NaCl; 0.4% BSA FAF; 1 mM Na3VO4) and incubated for 15 min until addition to the assay plate. Subsequently, 50 ul of radioactively labeled S1P is added to the wells (Sphingosine, D-erythro-[3-3H] 1-phosphate; ARC; ART0778). After an incubation for 2 h at room temperature, plates are centrifuged at 2000 rpm during 20 min. Plates are read on a Topcount reader (Perkin Elmer) immediately after centrifugation (readout time, 1 min/well).

HFL-1 cells [2] = experiment: IL-8 production assay (S1P induced IL-8); assay type: cell-based; conditions: Homo sapiens, HFL1; S1P (1 μM) induced IL-8 in HFL-1 cells, starvation medium without HSA; read-out: IL8 EC50
Protocol: This assay is designed to test inhibitory activity of compounds on S1P induced IL-8 on HFL-1 cells, ahuman fetal lung fibroblast cell line.
Human Fetal Lung cells (HFL-1) are seeded in 96 well plates in growth medium (F12K+10% heat inactivated FBS+l1% Pen/strep). After overnight incubation at 37° C., […] cells are refreshed with starvation medium without HSA (F12K+1% FBS+1% Pen/strep). On day three, compounds are added (10 point serial dilution, 30 μM highest concentration, 1/3 dilution, 0.3% DMSO final) and plates are incubated for one h at 37° C., 5% CO2. Subsequently S1P at 1 μM final concentration is added and plates are incubated for 16 to24 h at 37° C., […] after which the supermatant was collected. IL-8 levels in the supernatant are determined with the IL-8 ELISA of R&D systems.

HFL-1 cells [3] = experiment: IL8 assay in the presence of Human Serum Albumin; conditions: HFL1, read-out: HSA IL8 EC50

T1 sequence (O95136 whole entry): as above

SMILES	EC50 [1] [nM]	EC50 (S1PR2) [nM]	pEC50 (HFL-1 cells [2])	pEC50 (HFL-1 cells [3])
CS(=O)(=O)C1CCN(C(=O)Cn2nc(Cc3nc4cc(OCC(F)F)c(C#N)cc4[nH]3)c3ccccc3c2=O)C1 (stereo not drawn) [Compound 221, 6-(2,2-difluoroethoxy)-2-[[3-[2-(3-methylsulfonylpyrrolidin-1-yl)-2-oxo-ethyl]-4-oxo-phthalazin-1-yl]methyl]-3H-benzimidazole-5-carbonitrile]	45.8	365	6.90	6.41
CCOc1cc2[nH]c(Cc3nn(CC(=O)O)c(=O)c4c3CCCC4)nc2cc1Cl [Compound 121, 2-[4-[(5-chloro-6-ethoxy-1H-benzimidazol-2-yl)methyl]-1-oxo-5,6,7,8-tetrahydrophthalazin-2-yl]acetic acid]	6.23	84.8	8.20	7.29
O=C(O)C1(Cn2nc(Cc3nc4cc(Cl)c(OC(F)(F)F)cc4[nH]3)c3ccccc3c2=O)CC1 [Compound 47, 1-[[4-[[5-chloro-6-(trifluoromethoxy)-1H-benzimidazol-2-yl]methyl]-1-oxo-phthalazin-2-yl]methyl]cyclopropanecarboxylic acid]	2240	4520	5.87	5.00
CN(CC(F)F)C(=O)Cn1nc(Cc2nc3cc(C#N)c(OCC(F)F)cc3[nH]2)c2ccccc2c1=O [Compound 197, 2-[4-[[5-cyano-6-(2,2-difluoroethoxy)-1H-benzimidazol-2-yl]methyl]-1-oxo-phthalazin-2-yl]-N-(2,2-difluoroethyl)-N-methyl-acetamide]	32.5	80.3	6.86	6.20
CC(C)(C)COc1cc2nc(Cc3nn(CC(=O)O)c(=O)c4ccccc34)[nH]c2cc1Cl [Compound 132]	26.4	649	7.01	6.10
CCOc1cc2[nH]c(Cc3nn(CC(=O)O)c(=O)c4ccccc34)nc2cc1Cl [compound 6, 2-[4-[(5-chloro-6-ethoxy-1H-benzimidazol-2-yl)methyl]-1-oxo-phthalazin-2-yl]acetic acid]			7.91	7.24
CC(C)COc1cc2[nH]c(Cc3nn(CC(=O)N4CCOCC4)c(=O)c4ccccc34)nc2cc1Cl [Compound 173, 4-[(5-chloro-6-isobutoxy-1H-benzimidazol-2-yl)methyl]-2-(2-morpholino-2-oxo-ethyl)phthalazin-1-one]	16		8.62	8.46
N#Cc1cc2nc(Cc3nn(CC(=O)N4CCOCC4)c(=O)c4ccccc34)cn2cc1OCC(F)F [Compound 256, 6-(2,2-difluoroethoxy)-2-[[3-(2-morpholino-2-oxo-ethyl)-4-oxo-phthalazin-1-yl]methyl]imidazo[1,2-a]pyridine-7-carbonitrile]	11600		5.58	5.63
CC(C)(C)COc1cc2[nH]c(Cc3nn(CC(=O)N4CCOCC4)c(=O)c4ccccc34)nc2cc1Cl [Compound 160, 4-[[5-chloro-6-(2,2-dimethylpropoxy)-1H-benzimidazol-2-yl]methyl]-2-(2-morpholino-2-oxo-ethyl)phthalazin-1-one]	47.9		6.88	5.98
N#Cc1cc2[nH]c(Cc3nn(CC(=O)N4CC(O)(C5CC5)C4)c(=O)c4ccccc34)nc2cc1OCC(F)F [Compound 215, 2-[[3-[2-(3-cyclopropyl-3-hydroxy-azetidin-1-yl)-2-oxo-ethyl]-4-oxo-phthalazin-1-yl)methyl]-6-(2,2-difluoroethoxy)-3H-benzimidazole-5-carbonitrile]	120		6.70	6.95
CCOc1cc2[nH]c(Cc3nn(CC(=O)N4CCOCC4)c(=O)c4ccccc34)nc2cc1Cl [Compound 165, 4-[(5-chloro-6-ethoxy-1H-benzimidazol-2-yl)methyl]-2-(2-morpholino-2-oxo-ethyl)phthalazin-1-one]			8.33	7.10
